# Laboratory results: publication PMC10426190 (Breast Cancer Research : BCR, 2023)
# Where two headings read alike, the source gives them in different places.
# Assays:
# MCF-7 WT cells = experiment: Viability assay (CellTiter-Glo, 7 days), MCF-7 WT; assay type: cell-based, human
# Protocol: (§1) Trypsinized cells were dispensed into 384-well plates in culture media and after overnight incubation cells were treated with compounds for 7 days. Cell viability was assessed using CellTiter-Glo (Promega) according to the manufacturer’s protocol and relative luminescence units (RLU) were measured using an Envision Multilabel Reader (Perkin Elmer). […] IC50 and Imax were analyzed with IDBS XLfit.
# (§2) Statistical and graphical presentations were performed using IDBS XLfit and GraphPad Prism 9. For cell proliferation assays, the IC50 was calculated by fitting a dose–response curve using a nonlinear regression model with a log(inhibitor) vs response curve fit. […] P-values < 0.05 were considered statistically significant.
# MCF-7 Y537S cells = experiment: Viability assay (CellTiter-Glo, 7 days), MCF-7 Y537S; assay type: cell-based, human
# Protocol: as §1, §2
# [1] = system: intracranial MCF-7 tumors; experiment: Intracranial MCF-7 tumor model; assay type: in vivo, mouse
# Protocol: Female NPG mice were used for the intracranial MCF-7 tumor model. Three days before tumor cell implantation, estrogen pellets (0.72 mg, 17β-Estradiol, 60-day release, Innovative Research of America, Sarasota, FL, USA) were implanted subcutaneously. Each mouse was intracranially injected with 2 × 10^6 MCF-7 (ATCC) cells. […] Survival of mice was evaluated until Day 60. Mice were euthanized with weight loss exceeding 20% or moribund. On Day 60, all the mice remaining alive were euthanized. Before euthanasia, the mice were perfused with 4% paraformaldehyde and the brain tissues were collected for H&E staining using A[…] (Leica, Wetzlar, Germany).
# as §2
# [2] = system: MCF-7 subcutaneous tumors; experiment: MCF-7 subcutaneous xenograft mouse model; assay type: in vivo; details: MCF7 sc, 250 mg/kg subcutaneous once a week
# Protocol: Female Balb/c nude mice were used for MCF-7 and T47D tumor subcutaneous xenograft studies. At least one day before tumor cell implantation, estrogen pellets (0.18 mg, 17β-Estradiol, 60-day release, Innovative Research of America, Sarasota, FL, USA) were implanted subcutaneously. Each mouse was subcutaneously injected with 1 × 10^7 MCF-7 (ECACC) or T47D cells in the right flank, and tumor growth was monitored. The long diameter (a) and the short diameter (b) of the tumor were measured using a caliper, and the tumor volume was calculated using the following formula: V = 0.5 × a × b^2. […] Tumor volumes were evaluated twice per week. Treatment tolerability was assessed by body weight measurements and frequent observation for clinical signs of treatment-related adverse effects.
# as §2
# ERα = biological target: T1, ERα (Homo sapiens, UniProt P03372); experiment: ERα degradation assay, In-Cell Western, MCF-7 WT; assay type: cell-based; design: MCF-7 wild type and Y537S mutant cells were seeded at a density of 5000 cells per well; host or cells: MCF-7; details: 24 h
# T1 sequence (P03372 1-595): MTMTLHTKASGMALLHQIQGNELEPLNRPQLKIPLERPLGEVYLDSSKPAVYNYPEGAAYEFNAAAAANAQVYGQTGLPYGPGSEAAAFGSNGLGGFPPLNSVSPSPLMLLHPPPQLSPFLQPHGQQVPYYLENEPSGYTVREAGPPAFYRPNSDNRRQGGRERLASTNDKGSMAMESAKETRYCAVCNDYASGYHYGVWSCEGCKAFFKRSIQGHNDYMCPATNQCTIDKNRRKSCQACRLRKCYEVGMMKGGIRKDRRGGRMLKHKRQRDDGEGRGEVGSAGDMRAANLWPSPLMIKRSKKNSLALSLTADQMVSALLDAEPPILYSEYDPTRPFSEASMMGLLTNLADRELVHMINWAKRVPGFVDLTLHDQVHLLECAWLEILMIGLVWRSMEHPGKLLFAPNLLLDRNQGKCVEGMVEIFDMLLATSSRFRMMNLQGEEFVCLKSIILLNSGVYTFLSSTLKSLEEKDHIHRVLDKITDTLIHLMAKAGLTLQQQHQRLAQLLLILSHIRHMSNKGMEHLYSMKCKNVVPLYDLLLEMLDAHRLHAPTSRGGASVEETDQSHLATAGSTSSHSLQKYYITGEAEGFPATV
# Protocol: MCF-7 wild type and Y537S mutant cells were seeded at a density of 5000 cells per well into flat clear bottom tissue cultured-treated 384-well plates (Greiner) in culture media and after overnight incubation cells were treated with compounds for 24 h. Then plates were fixed with 4% formaldehyde, permeabilized with ice-cold methanol, and blocked with Odyssey Blocking Buffer (LI-COR). The fixed cells were incubated with rabbit anti- ERα antibody (CST#8644S) and mouse anti-GAPDH antibody (Abcam #ab8245), washed and stained with IRDye 800 Goat anti-Rabbit IgG (Licor#926-32211) and IRDye 680 Goat anti-Mouse IgG (Licor#926-68070). ERα levels were quantitated using Sapphire RGBNIR (Azure), the acumen eX3 imaging system. […] IC50 and Emax were analyzed with IDBS XLfit.
# MCF7 cells were seeded in a 384-well plate and linear-dilution compounds were administrated in duplicate for each treatment. After incubation for 24 h, Cells in the assay pate were treated as described in methods. ERα levels were quantified by immunofluorescence assay. […] Cells were dispended into 96-well plates and incubated for 24 h with compounds (100 nM) treatment. […] Cells were seeded in 384-well plates and treated with linear-dilution compounds for 7 days of incubation. Cell viability was assessed using CellTiter-Glo. Cell growth inhibition is presented as a percentage of CellTiterGlo activity relative to the vehicle control. […] Then cells in each well were collected and the targeting proteins in lysate supernatant were detected by WB
# Cells were seeded at a density of 5,000 cells per well into 384-well plates and treated with linear-titration compounds in duplicate for 24 hours. ERα levels were quantified by immunofluorescence assay as described in the method. The detection signals were captured by Odyssey.
# advanced breast cancer = details: cited from earlier work; for PFS: second-line
structure (smiles),measurement,setting,value
C[C@]12CC[C@@H]3c4ccc(O)cc4C[C@@H](CCCCCCCCC[S+]([O-])CCCC(F)(F)C(F)(F)F)[C@H]3[C@@H]1CC[C@@H]2O (stereo partly drawn) [Fulvestrant],Viability assay Emax [% Ful.],MCF-7 WT cells,97.88 % Ful.
same,Viability assay Emax [% Veh.],MCF-7 WT cells,49.60 % Veh.
same,IC50,"MCF-7 WT cells; Homo sapiens, MCF7, 168 h",0.4 nM
same,Viability assay Emax [% Ful.],MCF-7 Y537S cells,95.49 % Ful.
same,Viability assay Emax [% Veh.],MCF-7 Y537S cells,65.05 % Veh.
same,IC50,"MCF-7 Y537S cells; Homo sapiens, MCF7, 168 h",16.3 nM
same,median survival time,[1]; 250 mg/kg subcutaneous once a week,27 days
same,tumor cell infiltration in brain tissues (H&E),"[1]; Fulvestrant 250 mg/kg, SCR-6852 3 mg/kg",significant tumor cells infiltration
same,TGI,[2],28.84%
same,ERα degradation assay Dmax [% Ful.],ERα,97.69 % Ful.
same,ERα degradation assay Dmax [% Veh.],ERα,56.04 % Veh.
same,OS,advanced breast cancer; 250 mg dose regimen ref 16,22.3 months
same,OS,advanced breast cancer; Fulvestrant HD 500 mg ref 16,26.4 months
same,PFS,advanced breast cancer; higher value of 6.5 vs. 5.5 (Fulvestrant HD 500 mg) ref 16,6.5 months
same,PFS,advanced breast cancer; lower value of 6.5 vs. 5.5 (250 mg dose regimen) ref 16,5.5 months
